± gives the expanded uncertainty stated by the source.
Assay: xn = mol fraction of the nth substance listed
Settings: Drop volume

CO [methanol] + CCCC[n+]1ccccc1.F[B-](F)(F)F
x2 = 0
Settings | surface tension liquid-gas [mN/m]
293.15 K | 22.6 ± 0.26
303.15 K | 21.81 ± 0.25
313.15 K | 20.93 ± 0.24
323.15 K | 20.05 ± 0.23

CO [methanol] + CCC[n+]1ccccc1.F[B-](F)(F)F
x2 = 0
Settings | surface tension liquid-gas [mN/m]
293.15 K | 22.6 ± 0.26
303.15 K | 21.81 ± 0.25
313.15 K | 20.93 ± 0.24
323.15 K | 20.05 ± 0.23

CCO [ethanol] + CCCC[n+]1cccc(C)c1.F[B-](F)(F)F
x2 = 0
Settings | surface tension liquid-gas [mN/m]
293.15 K | 22.28 ± 0.26
303.15 K | 21.49 ± 0.25
313.15 K | 20.66 ± 0.24
323.15 K | 19.84 ± 0.23

CCO [ethanol] + CCCC[n+]1ccccc1.F[B-](F)(F)F
x2 = 0
Settings | surface tension liquid-gas [mN/m]
303.15 K | 21.49 ± 0.25
313.15 K | 20.66 ± 0.24
323.15 K | 19.84 ± 0.23

CCCC[n+]1cccc(C)c1.F[B-](F)(F)F [1-butyl-3-methylpyridinium tetrafluoroborate] + CO
surface tension liquid-gas [mN/m]
Settings | 293.15 K | 303.15 K | 313.15 K | 323.15 K
x1 = 0.0489 | 23.93 ± 0.27 | 23.18 ± 0.27 | 22.36 ± 0.26 | 21.55 ± 0.25
x1 = 0.1011 | 25.33 ± 0.29 | 24.62 ± 0.28 | 23.88 ± 0.27 | 23.15 ± 0.27
x1 = 0.1984 | 27.89 ± 0.32 | 27.26 ± 0.31 | 26.63 ± 0.3 | 26.04 ± 0.3
x1 = 0.2961 | 30.43 ± 0.34 | 29.87 ± 0.34 | 29.36 ± 0.33 | 28.9 ± 0.33
x1 = 0.4021 | 33.15 ± 0.38 | 32.66 ± 0.37 | 32.26 ± 0.37 | 31.9 ± 0.36
x1 = 0.4935 | 35.36 ± 0.4 | 34.89 ± 0.4 | 34.55 ± 0.39 | 34.25 ± 0.39
x1 = 0.5892 | 37.57 ± 0.43 | 37.12 ± 0.42 | 36.81 ± 0.42 | 36.56 ± 0.42
x1 = 0.688 | 39.67 ± 0.46 | 39.2 ± 0.45 | 38.86 ± 0.45 | 38.62 ± 0.44
x1 = 0.7395 | 40.72 ± 0.47 | 40.22 ± 0.46 | 39.87 ± 0.46 | 39.6 ± 0.46
x1 = 0.8001 | 41.87 ± 0.49 | 41.35 ± 0.48 | 40.95 ± 0.48 | 40.65 ± 0.47
x1 = 0.8803 | 43.3 ± 0.51 | 42.72 ± 0.5 | 42.23 ± 0.5 | 41.86 ± 0.49
x1 = 0.935 | 44.21 ± 0.52 | 43.56 ± 0.51 | 42.99 ± 0.51 | 42.53 ± 0.5
x1 = 1 | 45.21 ± 0.54 | 44.48 ± 0.53 | 43.8 ± 0.52 | 43.24 ± 0.52

CCCC[n+]1cccc(C)c1.F[B-](F)(F)F [1-butyl-3-methylpyridinium tetrafluoroborate] + CCO
surface tension liquid-gas [mN/m]
Settings | 293.15 K | 303.15 K | 313.15 K | 323.15 K
x1 = 0.0279 | 22.56 ± 0.26 | 21.82 ± 0.25 | 21.07 ± 0.25 | 20.3 ± 0.24
x1 = 0.0486 | 22.72 ± 0.26 | 22.04 ± 0.25 | 21.34 ± 0.25 | 20.64 ± 0.24
x1 = 0.0988 | 23.15 ± 0.27 | 22.56 ± 0.26 | 22.03 ± 0.26 | 21.43 ± 0.25
x1 = 0.2016 | 24.19 ± 0.28 | 23.8 ± 0.27 | 23.55 ± 0.27 | 23.17 ± 0.27
x1 = 0.2987 | 25.71 ± 0.3 | 25.43 ± 0.29 | 25.32 ± 0.29 | 25.07 ± 0.29
x1 = 0.3978 | 27.89 ± 0.32 | 27.63 ± 0.32 | 27.56 ± 0.32 | 27.34 ± 0.31
x1 = 0.5001 | 30.59 ± 0.35 | 30.28 ± 0.35 | 30.15 ± 0.35 | 29.91 ± 0.34
x1 = 0.5865 | 33.12 ± 0.38 | 32.73 ± 0.38 | 32.51 ± 0.37 | 32.21 ± 0.37
x1 = 0.6878 | 36.16 ± 0.42 | 35.68 ± 0.41 | 35.34 ± 0.41 | 34.96 ± 0.41
x1 = 0.7851 | 39.08 ± 0.45 | 38.51 ± 0.45 | 38.04 ± 0.44 | 37.59 ± 0.44
x1 = 0.887 | 42.04 ± 0.49 | 41.38 ± 0.49 | 40.81 ± 0.48 | 40.3 ± 0.47
x1 = 0.945 | 43.68 ± 0.52 | 42.99 ± 0.51 | 42.35 ± 0.5 | 41.81 ± 0.5
x1 = 1 | 45.21 ± 0.54 | 44.48 ± 0.53 | 43.8 ± 0.52 | 43.24 ± 0.52

CCO [ethanol] + CCCC[n+]1ccc(C)cc1.F[B-](F)(F)F
x2 = 0
Settings | surface tension liquid-gas [mN/m]
293.15 K | 22.28 ± 0.26
303.15 K | 21.49 ± 0.25
313.15 K | 20.66 ± 0.24
323.15 K | 19.84 ± 0.23

CCCC[n+]1ccccc1.F[B-](F)(F)F [1-butylpyridinium tetrafluoroborate] + CCO
surface tension liquid-gas [mN/m]
Settings | 303.15 K | 313.15 K | 323.15 K
x1 = 0.05 | 22.16 ± 0.26 | 21.51 ± 0.25 | 20.72 ± 0.24
x1 = 0.1021 | 22.72 ± 0.26 | 22.17 ± 0.26 | 21.41 ± 0.25
x1 = 0.1959 | 23.54 ± 0.27 | 23.25 ± 0.27 | 22.74 ± 0.26
x1 = 0.2902 | 24.72 ± 0.29 | 24.48 ± 0.28 | 24.26 ± 0.28
x1 = 0.3922 | 26.57 ± 0.31 | 26.27 ± 0.3 | 26.25 ± 0.3
x1 = 0.4914 | 28.89 ± 0.33 | 28.68 ± 0.33 | 28.54 ± 0.33
x1 = 0.5953 | 31.85 ± 0.37 | 31.63 ± 0.37 | 31.45 ± 0.36
x1 = 0.6898 | 35.04 ± 0.41 | 34.75 ± 0.4 | 34.53 ± 0.4
x1 = 0.7903 | 38.62 ± 0.45 | 38.26 ± 0.45 | 38.01 ± 0.44
x1 = 0.8879 | 42.28 ± 0.5 | 41.85 ± 0.49 | 41.5 ± 0.49
x1 = 0.94 | 44.15 ± 0.52 | 43.62 ± 0.52 | 43.24 ± 0.51
x1 = 1 | 46.3 ± 0.55 | 45.69 ± 0.54 | 45.11 ± 0.54

CCCC[n+]1ccc(C)cc1.F[B-](F)(F)F [1-butyl-4-methylpyridinium tetrafluoroborate] + CCO
surface tension liquid-gas [mN/m]
Settings | 293.15 K | 303.15 K | 313.15 K | 323.15 K
x1 = 0.0497 | 22.7 ± 0.26 | 22.02 ± 0.25 | 21.32 ± 0.25 | 20.63 ± 0.24
x1 = 0.0993 | 23.17 ± 0.27 | 22.6 ± 0.26 | 22.02 ± 0.26 | 21.44 ± 0.25
x1 = 0.1995 | 24.47 ± 0.28 | 24.08 ± 0.28 | 23.68 ± 0.27 | 23.27 ± 0.27
x1 = 0.2946 | 25.95 ± 0.3 | 25.68 ± 0.3 | 25.41 ± 0.29 | 25.14 ± 0.29
x1 = 0.36 | 27.2 ± 0.31 | 26.98 ± 0.31 | 26.77 ± 0.31 | 26.55 ± 0.31
x1 = 0.4269 | 28.57 ± 0.33 | 28.38 ± 0.33 | 28.22 ± 0.32 | 28.04 ± 0.32
x1 = 0.4882 | 29.99 ± 0.34 | 29.81 ± 0.34 | 29.65 ± 0.34 | 29.49 ± 0.34
x1 = 0.589 | 32.66 ± 0.38 | 32.44 ± 0.37 | 32.25 ± 0.37 | 32.05 ± 0.37
x1 = 0.7001 | 35.92 ± 0.42 | 35.61 ± 0.41 | 35.34 ± 0.41 | 35.05 ± 0.41
x1 = 0.7895 | 38.75 ± 0.45 | 38.33 ± 0.45 | 37.95 ± 0.44 | 37.57 ± 0.44
x1 = 0.8345 | 40.28 ± 0.47 | 39.79 ± 0.47 | 39.35 ± 0.46 | 38.89 ± 0.46
x1 = 0.8805 | 41.85 ± 0.49 | 41.29 ± 0.49 | 40.77 ± 0.48 | 40.25 ± 0.47
x1 = 1 | 45.82 ± 0.54 | 45.09 ± 0.54 | 44.41 ± 0.53 | 43.71 ± 0.52
